# Assay results taken from the supplement of paper PMC10307832.
# Legend:
# Assay in all cases: relative viability (nuclei count vs DMSO), 5 days (fraction); higher = more cells survive
# ABC-1 = tested on: ABC-1
# Summary of the method: (§1)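 Values are medians from duplicate plates. Each reflects relative viability, defined as the nuclei count of treated wells over that of vehicle wells. Lung cancer cell lines in 1536-well plates were pin-tool dosed one day after seeding with one drug alone or with a fixed anchor-drug dose plus five library-drug doses (not always all listed) in √10 steps, then fixed, stained and imaged at 4× after 5 days.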
# CAL-12T = tested on: CAL-12T
# Summary of the method: as §1
# ChaGo-K-1 = tested on: ChaGo-K-1
# Summary of the method: as §1
# EKVX = tested on: EKVX
# Summary of the method: as §1
# EPLC-272H = tested on: EPLC-272H
# Summary of the method: as §1
# H3255 = tested on: H3255
# Summary of the method: as §1
# HCC-366 = tested on: HCC-366
# Summary of the method: as §1
# HCC-827 = tested on: HCC-827
# Summary of the method: as §1
# NCI-H1355 = tested on: NCI-H1355
# Summary of the method: as §1
# NCI-H1792 = tested on: NCI-H1792
# Summary of the method: as §1
# NCI-H1975 = tested on: NCI-H1975
# Summary of the method: as §1
# NCI-H1993 = tested on: NCI-H1993
# Summary of the method: as §1
# NCI-H2085 = tested on: NCI-H2085
# Summary of the method: as §1
# NCI-H2087 = tested on: NCI-H2087
# Summary of the method: as §1
# NCI-H2342 = tested on: NCI-H2342
# Summary of the method: as §1
# NCI-H322M = tested on: NCI-H322M
# Summary of the method: as §1
# NCI-H441 = tested on: NCI-H441
# Summary of the method: as §1
# NCI-H460 = tested on: NCI-H460
# Summary of the method: as §1
compound,measurement,setting,value
Cc1cn(-c2cc(NC(=O)c3ccc(C)c(Nc4nccc(-c5cccnc5)n4)c3)cc(C(F)(F)F)c2)cn1 [Nilotinib] + NC(=O)Nc1cc(-c2cccc(F)c2)sc1C(=O)N[C@H]1CCCNC1 [AZD7762] (partner 0.2 µM),relative viability,ABC-1; first compound 0.001 µM,0.667
same,relative viability,ABC-1; first compound 0.003162 µM,0.73
same,relative viability,ABC-1; first compound 0.01 µM,0.803
same,relative viability,ABC-1; first compound 0.03162 µM,0.787
same,relative viability,ABC-1; first compound 0.1 µM,0.387
same,relative viability,CAL-12T; first compound 0.001 µM,0.607
same,relative viability,CAL-12T; first compound 0.003162 µM,0.423
same,relative viability,CAL-12T; first compound 0.01 µM,0.631
same,relative viability,CAL-12T; first compound 0.03162 µM,0.539
same,relative viability,CAL-12T; first compound 0.1 µM,0.605
same,relative viability,ChaGo-K-1; first compound 0.001 µM,0.884
same,relative viability,ChaGo-K-1; first compound 0.003162 µM,0.975
same,relative viability,ChaGo-K-1; first compound 0.01 µM,0.853
same,relative viability,ChaGo-K-1; first compound 0.03162 µM,0.638
same,relative viability,ChaGo-K-1; first compound 0.1 µM,0.344
same,relative viability,EKVX; first compound 0.001 µM,0.599
same,relative viability,EKVX; first compound 0.003162 µM,0.654
same,relative viability,EKVX; first compound 0.01 µM,0.729
same,relative viability,EKVX; first compound 0.03162 µM,0.688
same,relative viability,EKVX; first compound 0.1 µM,0.555
same,relative viability,EPLC-272H; first compound 0.001 µM,0.267
same,relative viability,EPLC-272H; first compound 0.003162 µM,0.13
same,relative viability,EPLC-272H; first compound 0.01 µM,0.164
same,relative viability,EPLC-272H; first compound 0.03162 µM,0.186
same,relative viability,EPLC-272H; first compound 0.1 µM,0.198
same,relative viability,H3255; first compound 0.001 µM,0.827
same,relative viability,H3255; first compound 0.003162 µM,0.65
same,relative viability,H3255; first compound 0.01 µM,0.908
same,relative viability,H3255; first compound 0.03162 µM,0.811
same,relative viability,H3255; first compound 0.1 µM,0.733
same,relative viability,HCC-366; first compound 0.001 µM,0.18
same,relative viability,HCC-366; first compound 0.003162 µM,0.231
same,relative viability,HCC-366; first compound 0.01 µM,0.264
same,relative viability,HCC-366; first compound 0.03162 µM,0.204
same,relative viability,HCC-366; first compound 0.1 µM,0.115
same,relative viability,HCC-827; first compound 0.001 µM,0.172
same,relative viability,HCC-827; first compound 0.003162 µM,0.158
same,relative viability,HCC-827; first compound 0.03162 µM,0.177
same,relative viability,HCC-827; first compound 0.1 µM,0.204
same,relative viability,NCI-H1355; first compound 0.001 µM,0.718
same,relative viability,NCI-H1355; first compound 0.003162 µM,0.782
same,relative viability,NCI-H1355; first compound 0.01 µM,0.801
same,relative viability,NCI-H1355; first compound 0.03162 µM,0.439
same,relative viability,NCI-H1355; first compound 0.1 µM,0.583
same,relative viability,NCI-H1792; first compound 0.001 µM,0.483
same,relative viability,NCI-H1792; first compound 0.003162 µM,0.638
same,relative viability,NCI-H1792; first compound 0.01 µM,0.467
same,relative viability,NCI-H1792; first compound 0.03162 µM,0.385
same,relative viability,NCI-H1792; first compound 0.1 µM,0.263
same,relative viability,NCI-H1975; first compound 0.001 µM,0.622
same,relative viability,NCI-H1975; first compound 0.003162 µM,0.571
same,relative viability,NCI-H1975; first compound 0.01 µM,0.744
same,relative viability,NCI-H1975; first compound 0.03162 µM,0.613
same,relative viability,NCI-H1975; first compound 0.1 µM,0.667
same,relative viability,NCI-H1993; first compound 0.001 µM,0.875
same,relative viability,NCI-H1993; first compound 0.003162 µM,0.803
same,relative viability,NCI-H1993; first compound 0.01 µM,0.819
same,relative viability,NCI-H1993; first compound 0.03162 µM,0.754
same,relative viability,NCI-H1993; first compound 0.1 µM,0.559
same,relative viability,NCI-H2085; first compound 0.001 µM,0.978
same,relative viability,NCI-H2085; first compound 0.003162 µM,0.942
same,relative viability,NCI-H2085; first compound 0.01 µM,1.03
same,relative viability,NCI-H2085; first compound 0.03162 µM,0.793
same,relative viability,NCI-H2085; first compound 0.1 µM,0.527
same,relative viability,NCI-H2087; first compound 0.001 µM,0.828
same,relative viability,NCI-H2087; first compound 0.003162 µM,1.58
same,relative viability,NCI-H2087; first compound 0.01 µM,1.98
same,relative viability,NCI-H2087; first compound 0.03162 µM,0.86
same,relative viability,NCI-H2087; first compound 0.1 µM,0.893
same,relative viability,NCI-H2342; first compound 0.001 µM,0.425
same,relative viability,NCI-H2342; first compound 0.003162 µM,0.315
same,relative viability,NCI-H2342; first compound 0.01 µM,0.411
same,relative viability,NCI-H2342; first compound 0.03162 µM,0.463
same,relative viability,NCI-H2342; first compound 0.1 µM,0.427
same,relative viability,NCI-H322M; first compound 0.001 µM,0.597
same,relative viability,NCI-H322M; first compound 0.003162 µM,0.525
same,relative viability,NCI-H322M; first compound 0.01 µM,0.518
same,relative viability,NCI-H322M; first compound 0.03162 µM,0.41
same,relative viability,NCI-H322M; first compound 0.1 µM,0.407
same,relative viability,NCI-H441; first compound 0.001 µM,1.08
same,relative viability,NCI-H441; first compound 0.003162 µM,1.21
same,relative viability,NCI-H441; first compound 0.01 µM,1.19
same,relative viability,NCI-H441; first compound 0.03162 µM,0.714
same,relative viability,NCI-H441; first compound 0.1 µM,0.565
same,relative viability,NCI-H460; first compound 0.001 µM,0.549
same,relative viability,NCI-H460; first compound 0.003162 µM,0.603
same,relative viability,NCI-H460; first compound 0.01 µM,0.389
same,relative viability,NCI-H460; first compound 0.03162 µM,0.427
same,relative viability,NCI-H460; first compound 0.1 µM,0.41
